In paper PMC9231160, “Monoterpenoid Glycosides from the Leaves of Ligustrum robustum and Their Bioactivities” (Molecules, 2022):
Entries after “also recorded” stand apart in the source; their conditions may differ.

How the values were obtained:
[1] = DPPH radical scavenging assay; details: mean ± SD (n = 3), NA = no activity
Procedure: Statistical analyses were carried out on GraphPad Prism 5.01. All samples were measured in triplicate. The IC50 (the final concentration of sample needed to inhibit 50% of enzyme activity or scavenge 50% of free radical) was obtained by plotting the inhibition or scavenging percentage of each sample against its concentration. The results are reported as mean ± standard deviation (SD). Differences of means between groups were analyzed by one-way analysis of variance (ANOVA) on statistical package SPSS 13.0. The differences between groups were believed to be significant when p < 0.05.
(§1) S1.3. Determination of α-amylase inhibitory activity.
Phosphate buffer (20 mM, pH 6.9, containing 6 mM NaCl) was used as the solvent in this assay. Sample solution (50 μL, 50-1500 μM) and starch solution (50 μL, 1%, w/v) were mixed and incubated in a 96-well microplate at 37 °C for 10 min.
Then, α-amylase solution (50 μL, 0.2 U/mL) was added and the mixture was incubated at 37 °C for an additional 10 min. […] When the reaction solution cooled to room temperature, all samples were diluted by adding distilled water (50 μL), and then their absorbance was measured using a microplate reader at 540 nm. All samples had little background absorbance (phosphate buffer instead of starch solution) at 540 nm, thus the inhibitory activity was calculated as (Acontrol - Asample)/Acontrol × 100%, in which Asample was the absorbance of the sample and Acontrol was the absorbance of the phosphate buffer control without test samples. […]
The DPPH radical scavenging assay was used to evaluate the antioxidant activity of compounds 1-11. […] The absorbance of the reaction mixture was measured at 517 nm using a microplate reader. The DPPH scavenging activity was calculated by the following formula: DPPH scavenging activity (%) = (Acontrol - Asample)/Acontrol × 100%, where Acontrol was the absorbance of ethanol control without samples, Asample was the absorbance of sample. […]

α-Glucosidase from yeast = assay: α-glucosidase inhibitory activity; assay type: biochemical; details: for α-Glucosidase Inhibition at 0.1 mM: mean ± SD (n = 3), NA = no activity
Procedure: (§2) All samples were measured in triplicate. […] Differences of means between groups were analyzed by one-way analysis of variance (ANOVA) on statistical package SPSS 13.0. The differences between groups were believed to be significant when p < 0.05.
S1. Determination of bioactivities. […]
S1.2. Determination of α-glucosidase inhibitory activity. […]
diluted with phosphate buffer (0.1 M, pH 6.8). […]
and 4-nitrophenyl α-D-glucopyranoside (pNPG) solution (50 μL, 5 mM) were mixed and incubated in a 96-well microplate at 37 °C for 5 min. α-Glucosidase from yeast (50 μL, 0.2 U/mL) was added and incubated at 37 °C for another 30 min. Finally, 50 μL of Na2CO3 (1M) was added to terminate the reaction. The absorbance of mixture was measured using a microplate reader at a wavelength 405 nm. […]
following equation: α-glucosidase inhibition (%) = (Acontrol - Asample)/Acontrol × 100%, where Acontrol represented the absorbance of phosphate buffer control without test samples, Asample represented the absorbance of test samples. Acarbose was used as the […]

α-amylase = α-amylase inhibitory activity; assay type: biochemical; details: for α-Amylase Inhibition at 0.1 mM: mean ± SD (n = 3), NA = no activity
Procedure: as §2, §1
Phosphate buffer (20 mM, pH 6.9, containing 6 mM NaCl) was used as the […]
μL, 1%, w/v) were mixed and incubated in a 96-well microplate at 37 °C for 10 min.
Then, α-amylase solution (50 μL, 0.2 U/mL) was added and the mixture was incubated at 37 °C for an additional 10 min. The reaction was stopped by addition of […]
microplate was immediately heated in 95 °C water bath for 10 min. When the reaction solution cooled to room temperature, all samples were diluted by adding distilled water (50 μL), and then their absorbance was measured using a microplate reader at […]
starch solution) at 540 nm, thus the inhibitory activity was calculated as (Acontrol - Asample)/Acontrol × 100%, in which Asample was the absorbance of the sample and Acontrol was the absorbance of the phosphate buffer control without test samples. Acarbose was used as the positive control.
(§3) S1.4. DPPH radical scavenging assay […]

[2] = target: T1, fatty acid synthase (FAS) (Gallus gallus, UniProt P12276); assay: FAS inhibitory activity; assay type: biochemical, chicken; details: for IC50: FAS isolated from chicken liver, mean ± SD (n = 3), NA = no activity; for FAS inhibitory activity (in words): qualitative statement
T1 construct: isolated from chicken liver and kept in ice-bath; from tissue; host or cells: chicken liver
Procedure: as §2
S1. Determination of bioactivities.
S1.1. Determination of FAS inhibitory activity. […]
diluted with potassium phosphate buffer (0.1 M, pH 7.0). Sample solution (100 μL, 20-2000 μM, 37 °C) and FAS substrates (1.8 mL, 37 °C) were mixed in a cuvette, and then FAS solution (100 μL, 37 °C, isolated from chicken liver and kept in ice-bath before use) was added. The absorbance of reaction mixture was monitored by a UV-vis spectrophotometer at 340 nm in 1 min. The inhibitory effect was calculated by the following equation: FAS inhibition (%) = (Acontrol - Asample)/Acontrol × 100%, where Acontrol represented the FAS activity in the control group (phosphate buffer instead of sample solution), Asample represented the FAS activity in the sample groups. The FAS activity was calculated as (A0 - A1)/1 min, in which A0 was the absorbance of the reaction mixture when the FAS was added, and A1 was the absorbance of the reaction mixture after reaction 1 min. Orlistat was used as the positive control.
FAS substrates: 0.1 M potassium phosphate buffer (pH 7.0), 1 mM ethylene-

[3] = ABTS radical scavenging assay; details: mean ± SD (n = 3)
Procedure: All samples were measured in triplicate. […] Differences of means between groups were analyzed by one-way analysis of variance (ANOVA) on statistical package SPSS 13.0. The differences between groups were believed to be significant when p < 0.05. […]
as §3
S1.5. ABTS radical scavenging assay
The ABTS radical scavenging assay was used also to evaluate the antioxidant
The ABTS free radical cation (ABTS•+ ) was
manufactured by reacting ABTS stock solution (7 mM) with potassium persulphate

[4] = qualitative statement, compared with positive control acarbose

T1 sequence (P12276 whole entry): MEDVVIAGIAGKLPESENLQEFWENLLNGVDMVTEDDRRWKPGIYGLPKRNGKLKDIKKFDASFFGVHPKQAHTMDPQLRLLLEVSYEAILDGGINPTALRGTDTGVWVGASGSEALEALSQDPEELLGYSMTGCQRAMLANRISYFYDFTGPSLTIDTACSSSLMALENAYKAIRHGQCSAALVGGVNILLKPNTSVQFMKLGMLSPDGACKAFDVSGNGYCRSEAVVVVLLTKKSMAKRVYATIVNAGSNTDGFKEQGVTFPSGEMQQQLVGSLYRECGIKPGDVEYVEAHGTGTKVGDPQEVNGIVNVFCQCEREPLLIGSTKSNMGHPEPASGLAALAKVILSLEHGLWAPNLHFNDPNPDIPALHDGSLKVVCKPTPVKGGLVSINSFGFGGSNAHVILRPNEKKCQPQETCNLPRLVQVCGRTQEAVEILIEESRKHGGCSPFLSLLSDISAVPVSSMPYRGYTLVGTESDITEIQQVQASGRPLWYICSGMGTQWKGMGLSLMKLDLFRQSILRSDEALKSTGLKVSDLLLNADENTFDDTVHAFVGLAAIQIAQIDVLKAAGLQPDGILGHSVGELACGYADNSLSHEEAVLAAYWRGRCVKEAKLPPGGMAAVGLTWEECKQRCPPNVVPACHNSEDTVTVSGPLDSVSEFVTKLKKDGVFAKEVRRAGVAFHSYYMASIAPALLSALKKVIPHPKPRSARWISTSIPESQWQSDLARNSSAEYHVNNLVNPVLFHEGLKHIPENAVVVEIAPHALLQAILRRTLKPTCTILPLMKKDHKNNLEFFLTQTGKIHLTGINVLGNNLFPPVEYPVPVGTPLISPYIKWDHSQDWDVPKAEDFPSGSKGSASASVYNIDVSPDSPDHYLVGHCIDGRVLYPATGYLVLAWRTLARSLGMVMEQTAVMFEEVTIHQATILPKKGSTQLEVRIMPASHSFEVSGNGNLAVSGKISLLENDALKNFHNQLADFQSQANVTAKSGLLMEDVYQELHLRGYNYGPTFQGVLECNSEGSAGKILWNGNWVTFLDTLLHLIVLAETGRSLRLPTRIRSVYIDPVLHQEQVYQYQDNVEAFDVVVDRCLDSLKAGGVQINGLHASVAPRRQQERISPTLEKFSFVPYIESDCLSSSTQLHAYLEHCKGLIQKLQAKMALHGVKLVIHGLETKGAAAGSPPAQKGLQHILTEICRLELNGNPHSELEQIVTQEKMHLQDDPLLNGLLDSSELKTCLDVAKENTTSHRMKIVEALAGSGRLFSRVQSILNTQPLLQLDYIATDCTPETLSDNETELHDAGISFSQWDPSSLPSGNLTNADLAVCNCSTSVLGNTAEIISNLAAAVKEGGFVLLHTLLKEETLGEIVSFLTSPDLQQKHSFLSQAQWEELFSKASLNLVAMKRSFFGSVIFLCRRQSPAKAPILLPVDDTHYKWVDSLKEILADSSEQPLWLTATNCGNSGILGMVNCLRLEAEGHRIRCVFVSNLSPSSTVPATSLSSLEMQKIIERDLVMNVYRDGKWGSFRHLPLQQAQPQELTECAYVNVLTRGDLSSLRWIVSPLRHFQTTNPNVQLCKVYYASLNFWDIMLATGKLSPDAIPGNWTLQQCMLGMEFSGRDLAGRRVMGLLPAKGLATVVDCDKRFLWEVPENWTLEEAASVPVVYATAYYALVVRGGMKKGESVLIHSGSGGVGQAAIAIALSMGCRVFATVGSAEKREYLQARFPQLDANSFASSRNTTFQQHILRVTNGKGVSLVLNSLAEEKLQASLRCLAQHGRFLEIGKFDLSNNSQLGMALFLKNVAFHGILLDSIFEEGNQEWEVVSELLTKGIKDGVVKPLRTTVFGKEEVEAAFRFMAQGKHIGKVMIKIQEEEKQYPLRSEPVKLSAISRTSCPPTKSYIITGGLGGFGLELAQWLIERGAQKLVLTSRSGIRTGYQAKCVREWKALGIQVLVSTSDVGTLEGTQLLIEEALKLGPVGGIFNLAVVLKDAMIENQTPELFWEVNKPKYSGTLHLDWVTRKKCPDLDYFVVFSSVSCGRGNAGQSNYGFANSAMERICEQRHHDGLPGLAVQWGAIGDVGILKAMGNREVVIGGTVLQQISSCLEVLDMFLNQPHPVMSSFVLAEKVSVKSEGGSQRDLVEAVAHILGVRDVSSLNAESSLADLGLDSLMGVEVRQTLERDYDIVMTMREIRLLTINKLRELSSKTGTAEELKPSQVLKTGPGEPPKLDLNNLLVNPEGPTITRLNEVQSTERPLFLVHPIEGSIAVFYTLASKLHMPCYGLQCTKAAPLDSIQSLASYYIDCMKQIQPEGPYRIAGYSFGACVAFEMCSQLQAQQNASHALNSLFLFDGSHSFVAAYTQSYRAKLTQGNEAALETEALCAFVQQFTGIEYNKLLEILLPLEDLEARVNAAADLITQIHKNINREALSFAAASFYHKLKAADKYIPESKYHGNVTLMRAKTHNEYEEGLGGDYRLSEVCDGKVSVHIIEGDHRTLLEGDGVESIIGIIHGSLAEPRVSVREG

| IC50 [1] | SMILES | α-Glucosidase Inhibition at 0.1 mM (α-Glucosidase from yeast) | α-glucosidase inhibitory effect (in words) (α-Glucosidase from yeast; [4]) | α-Amylase Inhibition at 0.1 mM (α-amylase) | α-amylase inhibitory effect (in words) (α-amylase; [4]) | IC50 [2] | FAS inhibitory activity (in words) [2] | IC50 [3] |
| --- | --- | --- | --- | --- | --- | --- | --- | --- |
| 13.66 ± 0.13 µM | O=C1O[C@H]([C@@H](O)CO)C(O)=C1O [L-(+)-ascorbic acid, reference compound] | – | – | – | – | – | – | – |
| – | C=C(C)C(O)CCC(C)=CCOC1OC(CO)C(OC(=O)C=Cc2ccc(O)cc2)C(OC2OC(C)C(O)C(O)C2O)C1O (centres unmarked) [Compound 9] | 12.4 ± 5.6 d % | – | 29.2 ± 8.4 b % | – | 21.7 ± 0.46 µM | – | 18.7 ± 0.47 µM |
| – | CC(=CCOC1OC(CO)C(OC(=O)C=Cc2ccc(O)cc2)C(OC2OC(C)C(O)C(O)C2O)C1O)CCC(O)C(C)(C)O (centres unmarked) [Compound 11] | – | – | 31.3 ± 1.3 b % | – | 61.74 ± 0.45 µM | – | 7.92 ± 0.23 µM |
| 19.7 ± 0.23 µM | C=CC(C)(CCC=C(C)C)O[C@@H]1O[C@H](CO)[C@@H](OC(=O)/C=C/c2ccc(O)c(O)c2)[C@H](O[C@@H]2O[C@@H](C)[C@H](O)[C@@H](O)[C@H]2O)[C@H]1O (mixture of isomers) [Compound 1, 3(R)- and 3(S)-linaloyl-(3-O-α-L-rhamnopyranosyl)-(4-O-trans-caffeoyl)-O-β-D-glucopyranoside] | – | – | – | – | – | – | 6.91 ± 0.1 µM |
| – | C=CC(C)(CCC=C(C)C)O[C@@H]1O[C@H](CO)[C@@H](OC(=O)/C=C\c2ccc(O)cc2)[C@H](O[C@@H]2O[C@@H](C)[C@H](O[C@@H]3O[C@@H](C)[C@H](O)[C@@H](O)[C@H]3O)[C@@H](O)[C@H]2O)[C@H]1O (stereo partly drawn) [Compound 7, linaloyl-[3-O-α-L-rhamnopyranosyl-(1→4)-α-L-rhamnopyranosyl]-(4-O-cis-p-coumaroyl)-O-β-D-glucopyranoside] | – | – | – | – | > 100 µM | – | 20.2 ± 0.33 µM |
| – | COC(C)(C)C=CCC(C)=CCOC1OC(COC(=O)C=Cc2ccc(O)cc2)C(O)C(OC2OC(C)C(O)C(O)C2O)C1O (centres unmarked) [Compound 8] | 24.7 ± 3.5 c % | – | 31.4 ± 1.9 b % | – | 25.8 ± 0.47 µM | – | 19.5 ± 0.46 µM |
| – | C=CC(C)(CCC(O)C(C)(C)O)OC1OC(COC(=O)C=Cc2ccc(O)cc2)C(O)C(OC2OC(C)C(O)C(O)C2O)C1O (centres unmarked) [Compound 4] | – | – | 28.2 ± 3.9 b % | – | > 100 µM | – | 9.66 ± 0.17 µM |
| – | CC(C)=CCC/C(C)=C/CO[C@@H]1O[C@H](CO)[C@@H](OC(=O)/C=C/c2ccc(O)cc2)[C@H](O[C@@H]2O[C@@H](C)[C@H](O)[C@@H](O)[C@H]2O)[C@H]1O [Compound 10, ligurobustoside C] | 28.7 ± 2.1 c % | – | – | – | 4.68 ± 0.16 µM | strong FAS inhibitory activity | 15.1 ± 0.1 µM |
| – | C=CC(C)(CCC=C(C)C)O[C@@H]1O[C@H](CO)[C@@H](OC(=O)/C=C/c2ccc(O)cc2)[C@H](O[C@@H]2O[C@@H](C)[C@H](O[C@@H]3O[C@@H](C)[C@H](O)[C@@H](O)[C@H]3O)[C@@H](O)[C@H]2O)[C@H]1O (stereo partly drawn) [Compound 6, linaloyl-[3-O-α-L-rhamnopyranosyl-(1→4)-α-L-rhamnopyranosyl]-(4-O-trans-p-coumaroyl)-O-β-D-glucopyranoside] | 12.0 ± 1.7 d % | – | 26.1 ± 3.0 b % | – | 4.78 ± 0.14 µM | strong FAS inhibitory activity | 11.3 ± 0.16 µM |
| – | C=CC(C)(C/C=C/C(C)(C)OC)O[C@@H]1O[C@H](COC(=O)/C=C/c2ccc(O)cc2)[C@@H](O)[C@H](O[C@@H]2O[C@@H](C)[C@H](O)[C@@H](O)[C@H]2O)[C@H]1O (stereo partly drawn) [Compound 5, (5E)-3-(3-hydroxy-7-methoxy-3,7-dimethyl-octa-1,5-dienyl)-(3-O-α-L-rhamnopyranosyl)-(6-O-trans-p-coumaroyl)-O-β-D-glucopyranoside] | 13.8 ± 2.0 d % | – | 35.6 ± 2.0 b % | – | 23.7 ± 0.45 µM | – | 6.93 ± 0.01 µM |
| – | C=CC(C)(CCC(O)C(=C)C)O[C@@H]1O[C@H](COC(=O)/C=C/c2ccc(O)cc2)[C@@H](O)[C@H](O[C@@H]2O[C@@H](C)[C@H](O)[C@@H](O)[C@H]2O)[C@H]1O (stereo partly drawn) [Compound 3, 3-(3,6-dihydroxy-3,7-dimethyl-octa-1,7-dienyl)-(3-O-α-L-rhamnopyranosyl)-(6-O-trans-p-coumaroyl)-O-β-D-glucopyranoside] | 27.3 ± 0.3 c % | – | 32.5 ± 6.3 b % | – | 21.8 ± 0.38 µM | – | 16 ± 0.69 µM |

| SMILES | IC50 [1] | α-Glucosidase Inhibition at 0.1 mM (α-Glucosidase from yeast) | α-glucosidase inhibitory effect (in words) (α-Glucosidase from yeast; [4]) | α-Amylase Inhibition at 0.1 mM (α-amylase) | α-amylase inhibitory effect (in words) (α-amylase; [4]) | IC50 [2] | FAS inhibitory activity (in words) [2] | IC50 [3] |
| --- | --- | --- | --- | --- | --- | --- | --- | --- |
| C=CC(C)(CCC=C(C)C)O[C@@H]1O[C@H](COC(=O)/C=C/c2ccc(O)cc2)[C@@H](O)[C@H](O[C@@H]2O[C@@H](C)[C@H](O)[C@@H](O)[C@H]2O)[C@H]1O (mixture of isomers) [Compound 2, 3(R)- and 3(S)-linaloyl-(3-O-α-L-rhamnopyranosyl)-(6-O-trans-p-coumaroyl)-O-β-D-glucopyranoside] | > 250 µM | 48.1 ± 4.3 b % | weaker α-glucosidase inhibitory effect than the positive control acarbose; also recorded: moderate | 31.5 ± 0.5 b % | moderate | 2.36 ± 0.1 µM | strong FAS inhibitory activity | 9.41 ± 0.22 µM |
